Data reported in patent US4599336A, “Derivatives of (E)-3-(4-oxo-4H-quinazolin-3-yl)-2-propenamide” (Hoffmann-La Roche Inc., priority 1983, dated 1986).

Tested on: SRS-A Biosynthesis (antigen-induced bronchoconstriction)
Assay: In Vivo Screening Procedure for SRS-A Synthesis Inhibitors in Guinea Pigs
Details: 10 mg/kg iv; guinea pig
Source text: Paralyzed, artifically ventilated, actively sensitized guinea pigs are pretreated with indomethacin (to divert the flow of endogenous arachidonic acid through the lipoxygenase pathway), pyrilamine maleate (to block any bronchoconstriction due to released histamine) and […] (to enhance the sensitivity of the guinea pig bronchoconstriction to SRS-A) prior to challenging the animal with antigen. Under these conditions the resulting antigen-induced bronchoconstriction has been characterized as being attributable to the synthesis and release of SRS-A in the guinea pig lung. Test compounds are initially studied for their inhibitory properties in this test system by the intravenous route (at 10 mg/kg).

Row | SMILES | % Inhibition SRS-A Biosynthesis
1 | CC(C)c1ccc2ncn(/C=C/C(=O)NCCc3ccccn3)c(=O)c2c1 | 56%
2 | CC(C)c1ccc2ncn(/C=C/C(=O)NCCc3ccncc3)c(=O)c2c1 | 57%
3 | CC(C)c1ccc2ncn(/C=C/C(=O)NCCCCc3ccccn3)c(=O)c2c1 [drawing 25] | 59%
